Series [1] can be described thus: Hygroscopicity of crystalline Form-SA. As to conditions: crystalline solid. In kind it is physicochemical.
For series [2] the following is noted: crystal forms disclosed by Zimmermann et al, U.S.'051; cited from earlier work.
For series [3] the following is noted: compared with the α-crystal form; disclosed in U.S.'051; cited from earlier work.

Where two headings read alike, the source gives them in different places.

For the compound `Cc1ccc(NC(=O)c2ccc(CN3CCN(C)CC3)cc2)cc1Nc1nccc(-c2cccnc2)n1` [Form-SA, 4-[(4-Methyl-1-piperazinyl)methyl]-N-[4-methyl-3-[[4-(3-pyridinyl)-2-pyrimidinyl]amino]-phenyl]benzamide methanesulfonate], the hygroscopicity entry in series [1] is listed as “non-hygroscopic”.
As to `CS(=O)(=O)O.Cc1ccc(NC(=O)c2ccc(CN3CCN(C)CC3)cc2)cc1Nc1nccc(-c2cccnc2)n1` [a-crystal form], in series [2], the hygroscopicity result was “hygroscopic”.
Consider `CS(=O)(=O)O.Cc1ccc(NC(=O)c2ccc(CN3CCN(C)CC3)cc2)cc1Nc1nccc(-c2cccnc2)n1` [β-crystal form], for which the hygroscopicity result in series [2] is reported as “less hygroscopic than the α-crystal form”. Further, in series [3], the thermodynamic stability result was “thermodynamically more stable at temperatures below 140 °C”.

Source of the values: patent US20160122315A1, “CRYSTALLINE IMATINIB MESYLATE PROCESS” (SHILPA MEDICARE LIMITED, priority 2013, published 2016).
